{"source": "patent US20240142382A1", "about": "“METHODS AND COMPOSITIONS FOR CALIBRATED LABEL-FREE SURFACE-ENHANCED RAMAN SPECTROSCOPY” (Virginia Tech Intellectual Properties, Inc., priority 2021, published 2024)", "key": {"HCC-1806": {"tested_on": "HCC-1806", "details": "HCC-1806 triple-negative breast cancer cells; read-out: half-maximal inhibition concentration (IC50); cited from earlier work"}, "MDA-MB-231 cells": {"tested_on": "MDA-MB-231 cells", "assay": "label-free SERS mapping with PLS-DA of living cells treated with PTX dosages", "type": "cell-based, human", "details": "1.5 nM PTX, MDA-MB-231, PLS-DA after ERS calibration"}, "HCC-1806 cells": {"tested_on": "HCC-1806 cells", "assay": "label-free SERS mapping with PLS-DA of living cells treated with PTX dosages", "type": "cell-based, human", "details": "1.5 nM, 5 nM and 15 nM PTX, HCC-1806, after ERS calibration"}}}
{"smiles": "CC(=O)O[C@H]1C(=O)[C@@]2(C)[C@H]([C@H](OC(=O)c3ccccc3)[C@]3(O)C[C@H](OC(=O)[C@H](O)[C@@H](NC(=O)c4ccccc4)c4ccccc4)C(C)=C1C3(C)C)[C@]1(OC(C)=O)CO[C@@H]1C[C@@H]2O", "note": "[PTX, paclitaxel]", "values": [{"measurement": "IC50", "setting": "HCC-1806", "value": 1.5, "unit": "nM"}, {"measurement": "changes of SERS-measured molecular profiles versus control group (0 nM)", "setting": "MDA-MB-231 cells", "value": "not enough to elicit significant changes"}, {"measurement": "separation of PLS-DA scatters of control group (0 nM) from PTX treated groups", "setting": "HCC-1806 cells", "value": "completely separate"}]}
